From patent US20210403860A1 (priority 2018, published 2021)
“And” between values parts separate entries of the source, which are not always exact repeats. Equal entries are not always repeated. Where two headings read alike, the source gives them in different places.

Experiments:
Comamonas terrigena = assay type: cell-based
[1] = tested on: Stenotrophomonas bentonitica; assay type: cell-based
[2] = tested on: Flavobacterium acidificum; assay type: cell-based
Clostridium argentinense = assay type: cell-based
Pseudomonas putida = assay type: cell-based
Pantoea cypripedii = assay type: cell-based
Paenibacillus silvae = assay type: cell-based
[3] = tested on: Lysinibacillus mangiferihumi; assay type: cell-based
Ca. L. asiaticus [4] = assay type: cell-based, Candidatus Liberibacter asiaticus (strain psy62); conditions: for fold change in Ca. L. asiaticus GE: 7 days
Bacillus cereus [5] = assay type: cell-based
Brevibacillus gelatini = assay type: cell-based
Pseudomonadaceae = assay type: cell-based
Bacillus cereus [6] = conditions: cited from earlier work
Ca. L. asiaticus [7] = conditions: cited from earlier work
Bacillaceae = assay type: cell-based
Ca. L. asiaticus [8] = assay type: cell-based; conditions: 10 mM glucose and 100 μg/ml amikacin

With `C[C@H]1O[C@H](O[C@H]2[C@H](O)[C@@H](O)[C@@H](O)[C@H](O)[C@@H]2O)[C@@H](N)C[C@@H]1NC(=N)C(=O)O` [kasugamycin] as the molecule, how does the “proportion of OTU 6” value (Comamonas terrigena) read?
Its value is 0.000.

And the “proportion of OTU 2” value [1]?
The value was 0.136.

And the “proportion of OTU 10” value [2]?
The value was 0.056.

What about the “proportion of OTU 5” value (Clostridium argentinense; Kag 0.25 μg/ml) of the same molecule?
The value was 0.030.

And the “proportion of OTU 1” value (Pseudomonas putida)?
The value was 0.599.

What about the “proportion of OTU 7” value (Pantoea cypripedii) of the same molecule?
The value was 0.005.

What about the “proportion of OTU 8” value (Paenibacillus silvae) of the same molecule?
The value was 0.000.

And the “proportion of OTU 4” value [3]?
The value was 0.000.

What about the “enhancement of Ca. L. asiaticus growth” value (Ca. L. asiaticus [4]; kasugamycin treatment) of the same molecule?
The value was “did not enhance”.

And the “proportion of OTU 3” value (Bacillus cereus [5])?
Its value is 0.001.

And the “proportion of OTU 9” value (Brevibacillus gelatini)?
The value was 0.001.

For polymyxin B, which “decrease of proportion of Pseudomonadaceae compared to non-antibiotic samples” value (Pseudomonadaceae) is on record?
Its value is 30.5 times.

What about the “concentration sub-inhibitory to Bacillus cereus” value (Bacillus cereus [6]) of the same molecule?
The value was < 0.65 µg/mL.

And the “activity against / sensitivity of Ca. L. asiaticus” value (Ca. L. asiaticus [7])?
The value was “not active”.

And the “reads that were Bacillaceae members” value (Bacillaceae)?
Its value is 70.7%.

And the “proportion of OTU 5” value (Clostridium argentinense; Pmb 0.5 μg/ml)?
The value was 0.194.

What about the “proportion of OTU 5” value (Clostridium argentinense; Pmb 2 μg/ml) of the same molecule?
Its value is 0.001.

What about the “proportion of OTU 5” value (Clostridium argentinense; Pmb 4 μg/ml) of the same molecule?
Its value is 0.011.

What about the “proportion of OTU 8” value (Paenibacillus silvae) of the same molecule?
The value was 0.000.

And the “proportion of OTU 4” value [3]?
The value was 0.000.

What about the “fold change in Ca. L. asiaticus GE” value (Ca. L. asiaticus [4]; 2 μg/ml polymyxin B, vs non-antibiotic control) of the same molecule?
Its value is 2.28±0.15 fold.

What about the “fold change in Ca. L. asiaticus GE” value (Ca. L. asiaticus [4]; 4 μg/ml polymyxin B, vs non-antibiotic control) of the same molecule?
Its value is 4.54±0.83 fold.

And the “fold change in Ca. L. asiaticus GE” value (Ca. L. asiaticus [4]; <1 μg/ml polymyxin B, vs untreated cultures)?
The value was 0.03±0.13 fold.

Which results are given for `NCC[C@H](O)C(=O)N[C@@H]1C[C@H](N)[C@@H](O[C@H]2O[C@H](CN)[C@@H](O)[C@H](O)[C@H]2O)[C@H](O)[C@H]1O[C@H]1O[C@H](CO)[C@@H](O)[C@H](N)[C@H]1O` [amikacin]?
Ca. L. asiaticus GE, day 3 (Ca. L. asiaticus [8]; 10% O2 (FIG. 13)): 1.15×10^5±2.8×10^4 GE; fold potentiation in Ca. L. asiaticus DNA content vs glucose alone (Ca. L. asiaticus [8]; three days): 3.03 fold; overall fold increase in GE compared to starting material (d0) (Ca. L. asiaticus [8]; three days): 11.1 fold; activity against / sensitivity of Ca. L. asiaticus (Ca. L. asiaticus [7]): does not appear to be sensitive

With `CN[C@H](CC(C)C)C(=O)N[C@H]1C(=O)N[C@@H](CC(N)=O)C(=O)N[C@H]2C(=O)N[C@H]3C(=O)N[C@H](C(=O)N[C@H](C(=O)O)c4cc(O)cc(O)c4-c4cc3ccc4O)[C@H](O)c3ccc(c(Cl)c3)Oc3cc2cc(c3O[C@@H]2O[C@H](CO)[C@@H](O)[C@H](O)[C@H]2O[C@H]2C[C@](C)(N)[C@H](O)[C@H](C)O2)Oc2ccc(cc2Cl)[C@H]1O` [vancomycin] as the molecule, how does the “proportion of OTU 5” value (Clostridium argentinense; Van 25 μg/ml) read?
The value was 0.120.

And the “proportion of OTU 5” value (Clostridium argentinense; Van 35 μg/ml)?
Its value is 0.101.

What about the “proportion of OTU 5” value (Clostridium argentinense; Van 50 μg/ml) of the same molecule?
The value was 0.071.

What about the “proportion of OTU 5” value (Clostridium argentinense; Van 75 μg/ml) of the same molecule?
Its value is 0.039.

What about the “proportion of OTU 5” value (Clostridium argentinense; Van 100 μg/ml) of the same molecule?
Its value is 0.004.

What about the “proportion of OTU 1” value (Pseudomonas putida) of the same molecule?
The value was 0.479 and 0.469 and 0.398 and 0.318 and 0.527.

What about the “proportion of OTU 8” value (Paenibacillus silvae) of the same molecule?
Its value is 0.000.

And the “fold change in Ca. L. asiaticus GE” value (Ca. L. asiaticus [4]; 50 μg/ml vancomycin, vs non-antibiotic control)?
Its value is 7.35±0.27 fold.

And the “proportion of OTU 9” value (Brevibacillus gelatini)?
Its value is 0.000.

With `[H]/N=C(/N)N[C@H]1[C@H](O)[C@@H](O)[C@H](O[C@@H]2O[C@@H](C)[C@](O)(C=O)[C@H]2O[C@@H]2O[C@@H](CO)[C@H](O)[C@@H](O)[C@@H]2NC)[C@@H](N/C(N)=N\[H])[C@@H]1O` [streptomycin] as the molecule, how does the “decrease of proportion of Pseudomonadaceae compared to non-antibiotic samples” value (Pseudomonadaceae) read?
The value was 5.5 times and 9.8 times.

What about the “proportion of OTU 10” value [2] of the same molecule?
The value was 0.000.

What about the “concentration sub-inhibitory to Bacillus cereus” value (Bacillus cereus [6]) of the same molecule?
The value was < 2.9 µg/mL.

And the “proportion of OTU 5” value (Clostridium argentinense; Str 0.02 μg/ml)?
The value was 0.002.

And the “proportion of OTU 5” value (Clostridium argentinense; Str 0.05 μg/ml)?
Its value is 0.007.

And the “proportion of OTU 5” value (Clostridium argentinense; Str 0.5 μg/ml)?
The value was 0.154.

What about the “proportion of OTU 5” value (Clostridium argentinense; Str 1.00 μg/ml) of the same molecule?
Its value is 0.131.

What about the “proportion of OTU 5” value (Clostridium argentinense; Str 2.00 μg/ml) of the same molecule?
Its value is 0.104.

What about the “proportion of OTU 8” value (Paenibacillus silvae) of the same molecule?
The value was 0.000.

What about the “proportion of OTU 4” value [3] of the same molecule?
The value was 0.000.

And the “fold change in Ca. L. asiaticus GE” value (Ca. L. asiaticus [4]; 0.02 μg/ml streptomycin, vs non-antibiotic control)?
Its value is 5.56±0.15 fold and ~6 fold.

And the “Ca. L. asiaticus growth compared to untreated cultures” value (Ca. L. asiaticus [4]; streptomycin >0.5 μg/ml)?
Its value is “reduced”.
